Test results as given in patent US20020019527A1 (priority 2000, published 2002).
Counter-ions that a name gives are not always drawn. Like-named read-outs stand apart in the source and are kept apart here.

Molecular target: T1, Farnesyltransferase (FTase) (Bos taurus, UniProt P29702+P49355)
T1 construct: precipitation from a beef brain homogenate; from tissue; host or cells: bovine brain
Assay: Farnesyltransferase inhibition (scintillation proximity assay, [3H]-FPP / biotin-K-ras peptide)
Assay type: biochemical, bovine
How it was run: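 Read-out: [3H]-FPP prenylation of a biotinylated K-ras peptide by SPA, measured 1 h after quenching. Enzyme: FTase purified from bovine brain (ammonium sulfate cut, DEAE Sepharose), free of GGTase I and II. Test compounds in ethanol, diluted 10-fold into the reaction.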

[1] = compound at 10^−6 M, bovine FTase, 37° C., 30 minutes

T1 sequence (P49355 whole entry, one chain of several): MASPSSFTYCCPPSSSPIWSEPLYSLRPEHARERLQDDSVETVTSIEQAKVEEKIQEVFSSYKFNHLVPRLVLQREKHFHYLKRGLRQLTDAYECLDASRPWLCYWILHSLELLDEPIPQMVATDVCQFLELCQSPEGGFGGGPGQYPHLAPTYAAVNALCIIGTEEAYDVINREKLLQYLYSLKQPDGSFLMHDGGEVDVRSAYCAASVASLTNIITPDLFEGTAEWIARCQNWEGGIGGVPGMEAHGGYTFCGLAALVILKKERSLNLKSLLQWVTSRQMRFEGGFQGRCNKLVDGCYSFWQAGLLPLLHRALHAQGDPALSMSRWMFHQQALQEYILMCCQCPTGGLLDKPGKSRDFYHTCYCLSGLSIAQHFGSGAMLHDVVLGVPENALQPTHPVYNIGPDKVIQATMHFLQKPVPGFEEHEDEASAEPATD

SMILES | inhibition at 1 µM [1] | also measured
Cn1cncc1C(OCc1ccc(Cl)cc1Cl)c1ccc(C#N)c(-c2cccc3ccccc23)c1 (stereo not shown) [Example 72, 4-(((2,4-dichlorobenzyl)oxy)(1-methyl-1H-imidazol-5-yl)methyl)-2-(1-naphthyl)benzonitrile hydrochloride] | 100% | 
COC(=O)c1ccc(CNC(c2ccc(C#N)c(-c3cccc4ccccc34)c2)c2cncn2C)nc1 (stereo not shown) [Example 52, methyl 6-((((4-cyano-3-(1-naphthyl)phenyl)(1-methyl-1H-imidazol-5-yl)methyl)amino)methyl)nicotinate trihydrochloride] | 100% | 
Cc1ccccc1-c1cc(C(OCc2ccccc2Br)c2cncn2C)ccc1C#N (stereo not shown) [Example 185, 5-(((2-bromobenzyl)oxy)(1-methyl-1H-imidazol-5-yl)methyl)-2′-methyl(1,1′-biphenyl)-2-carbonitrile hydrochloride] | 85% | 
Cn1cncc1C(OCc1ccc(C#N)cc1)c1ccc(C#N)c(-c2cccc3cccnc23)c1 (stereo not shown) [Example 18, 4-(((4-cyanobenzyl)oxy)(1-methyl-1H-imidazol-5-yl)methyl)-2-(8-quinolinyl)benzonitrile dihydrochloride] | 100% | 
Cn1cncc1C(OCc1ccccc1)c1ccc(C#N)c(-c2ccccc2Cl)c1 (stereo not shown) [Example 10, 5-((benzyloxy)(1-methyl-1H-imidazol-5-yl)methyl)-2′-chloro(1,1′-biphenyl)-2-carbonitrile hydrochloride] | 94% | 
Cc1ccccc1-c1cc(N(Cc2cccc(C#N)c2)Cc2cncn2C)ccc1C#N [Example 237, 5-((3-cyanobenzyl)((1-methyl-1H-imidazol-5-yl)methyl)amino)-2′-methyl(1,1′-biphenyl)-2-carbonitrile] | 100% | 
Cc1ccccc1-c1cc(C(OCc2ccc(C(F)(F)F)cc2F)c2cncn2C)ccc1C#N (stereo not shown) [Example 187, 5-(((2-fluoro-4-(trifluoromethyl)benzyl)oxy)(1-methyl-1H-imidazol-5-yl)methyl)-2′-methyl(1,1′-biphenyl)-2-carbonitrile hydrochloride] | 93% | 
Cc1ccccc1-c1cc(C(OCc2ccc(-c3ccccc3C#N)cc2)c2cncn2C)ccc1C#N (stereo not shown) [Example 145, 5-(((2′-cyano(1,1′-biphenyl)-4-yl)methoxy)(1-methyl-1H-imidazol-5-yl)methyl)-2′-methyl(1,1′-biphenyl)-2-carbonitrile hydrochloride] | 97% | 
Cl.Cl.Cn1cncc1C(OCc1cc(Cl)nc(Cl)c1)c1ccc(C#N)c(-c2cccc3ccccc23)c1 (stereo not shown) [Example 74, 4-(((2,6-dichloro-4-pyridinyl)methoxy)(1-methyl-1H-imidazol-5-yl)methy)-2-(1-naphthyl)benzonitrile dihydrochloride] |  | % Inhibition at 10^−6M [1]: 100%
Cn1cncc1CN(Cc1ccc(C(=O)O)cc1)Cc1ccc(C#N)c(-c2cccc3ccccc23)c1 [Example 193, 4-(((4-cyano-3-(1-naphthyl)benzyl)((1-methyl-1H-imidazol-5-yl)methyl)amino)methyl)benzoic acid dihydrochloride] | 91% | 
Cn1cncc1CN(Cc1ccc(C#N)cc1)C(=O)c1ccc(C#N)c(-c2cccc3cccnc23)c1 [Example 206, 4-cyano-N-(4-cyanobenzyl)-N-((1-methyl-1H-imidazol-5-yl)methyl)-3-(8-quinolinyl)benzamide] | 88% | 
Cc1ccccc1-c1cc(CNC(c2ccc(C#N)c(-c3ccccc3C)c2)c2cncn2C)ccc1C#N (stereo not shown) [Example 26] |  | % Inhibition at 10^−6M [1]: 100%
Cn1cncc1C(OCc1ccccc1)c1ccc(C#N)c(C2CCCCC2)c1 (stereo not shown) [Example 100, 4-((benzyloxy)(1-methyl-1H-imidazol-5-yl)methyl)-2-cyclohexylbenzonitrile hydrochloride] | 83% | 
COC(=O)c1ccc(CN(Cc2ccc(C#N)c(-c3cccc4ccccc34)c2)Cc2cncn2C)nc1 [Example 208, methyl 6-(((4-cyano-3-(1-naphthyl)benzyl)((1-methyl-1H-imidazol-5-yl)methyl)-amino)-methyl)nicotinate] | 95% | 
Cc1ccccc1-c1cc(C(OCc2cc([N+](=O)[O-])cc3c2OCOC3)c2cncn2C)ccc1C#N.Cl (stereo not shown) [Example 168] |  | % Inhibition at 10^−6M: 96%
CCOC(=O)N1CCC(N(Cc2ccc(C#N)c(-c3cccc4ccccc34)c2)Cc2cncn2C)CC1 [Example 209, ethyl 4-((4-cyano-3-(1-naphthyl)benzyl)((1-methyl-1H-imidazol-5-yl)methyl)-amino)-1-piperidinecarboxylate] | 93% | 
Cc1cccc(-c2cc(C(OCc3ccc(C#N)cn3)c3cncn3C)ccc2C#N)c1C (stereo not shown) [Example 281, 6-(((6-cyano-2′,3′-dimethyl(1,1′-biphenyl)-3-yl)(1-methyl-1H-imidazol-5-yl)methoxy)methyl)nicotinonitrile dihydrochloride] | 98% | 
Cn1cncc1C(OCc1ccc(C#N)c(-c2cccc3ccccc23)c1)c1ccccc1 (stereo not shown) [Example 256, 4-(((1-methyl-1H-imidazol-5-yl)(phenyl)methoxy)methyl)-2-(1-naphthyl)benzonitrile hydrochloride] | 94% | 
Cc1ccccc1-c1cc(C(OCc2csc(-c3ccc(C(F)(F)F)cc3)n2)c2cncn2C)ccc1C#N (stereo not shown) [Example 175, 2′-methyl-5-((1-methyl-1H-imidazol-5-yl)((2-(4-(trifluoromethyl)phenyl)-1,3-thiazol-4-yl)methoxy)methyl)(1,1′-biphenyl)-2-carbonitrile hydrochloride] | 75% | 
Cn1cncc1C(OCc1ccc(C#N)cc1)c1ccc(C#N)c(-c2ccnc3ccccc23)c1 (stereo not shown) [Example 19, 4-(((4-cyanobenzyl)oxy)(1-methyl-1H-imidazol-5-yl)methyl)-2-(4-quinolinyl)benzonitrile dihydrochloride] | 100% | 
Cn1cncc1C(CCc1ccccc1)NCc1ccc(C#N)c(-c2cccc3ccccc23)c1 (stereo not shown) [Example 260, 4(((1-(1-methyl-1H-imidazol-5-yl)-3-phenylpropyl)amino)methyl)-2-(1-naphthyl)benzonitrile dihydrochloride] | 90% | 
Cc1ccccc1-c1cc(C(NCc2ccccc2)c2cncn2C)ccc1C#N (stereo not shown) [Example 23, 5-((benzylamino)(1-methy-1H-imidazol-5-yl)methyl)-2′-methyl(1,1′-biphenyl)-2-carbonitrile] |  | % Inhibition at 10^−6M [1]: 100%
CN(C)C(=O)c1ccc(COC(c2ccc(C#N)c(-c3cccc4ccccc34)c2)c2cncn2C)cc1 (stereo not shown) [Example 70, 4-(((4-cyano-3-(1-naphthyl)phenyl)(1-methyl-1H-imidazol-5-yl)methoxy)methyl)-N,N-dimethylbenzamide hydrochloride] | 100% | 
Cc1ccccc1-c1cc(N(Cc2ccccc2)Cc2cncn2C)ccc1C#N [Example 226, 5-(benzyl((1-methyl-1H-imidazol-5-yl)methyl)amino)-2′-methyl(1,1-biphenyl)-2-carbonitrile] | 100% | 
Cn1cncc1C(OCc1ccc(Cl)c(Cl)c1)c1ccc(C#N)c(-c2ccccc2C(F)(F)F)c1 (stereo not shown) [Example 248, 5-(((3,4-dichlorobenzyl)oxy)(1-methyl-1H-imidazol-5-yl)methyl)-2′-(trifluoromethyl)(1,1′-biphenyl)-2-carbonitrile hydrochloride] | 98% | 
